# Reference: patent US9079895B2, “Morpholino compounds, uses and methods” (University of Dundee, priority 2012, dated 2015)
# Where a name gives a salt, the structure may show the parent alone.
# Experiments:
# [1] = molecular target: 5HT2c receptor (Homo sapiens (Human), UniProt P28335); experiment: Secondary radioligand binding assay, 5HT2c; conditions: average of at least two experiments
# Procedure: (§1) Assay Buffer: Standard Binding Buffer (50 mM Tris-HCl, 10 mM MgCl2, 1 mM EDTA, pH 7.4)
# (§2) Membrane Fraction Source: Transiently or stably transfected cell lines (e.g., HEK293, COS, CHO, NIH3T3)
# [2] = molecular target: 5HT2a receptor (Homo sapiens (Human), UniProt P28223); experiment: Secondary radioligand binding assay, 5HT2a; conditions: average of at least two experiments
# Sequence of 5HT2a receptor (P28223 whole entry): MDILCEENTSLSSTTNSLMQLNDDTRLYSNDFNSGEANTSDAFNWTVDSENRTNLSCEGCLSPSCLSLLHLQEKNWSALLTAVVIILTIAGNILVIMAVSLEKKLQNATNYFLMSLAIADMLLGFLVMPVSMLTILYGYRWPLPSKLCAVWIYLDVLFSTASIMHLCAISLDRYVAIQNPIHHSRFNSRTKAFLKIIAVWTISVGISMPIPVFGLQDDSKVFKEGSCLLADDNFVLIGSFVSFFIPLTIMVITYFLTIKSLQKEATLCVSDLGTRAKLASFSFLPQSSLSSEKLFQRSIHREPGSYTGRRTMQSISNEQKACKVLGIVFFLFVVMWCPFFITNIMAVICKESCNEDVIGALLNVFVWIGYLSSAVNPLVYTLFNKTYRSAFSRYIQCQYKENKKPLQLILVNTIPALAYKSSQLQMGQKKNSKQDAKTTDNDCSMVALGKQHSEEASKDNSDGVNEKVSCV
# Procedure: as §1, §2
# [3] = molecular target: dopamine D4 receptor (Homo sapiens (Human), UniProt P21917); experiment: Secondary radioligand binding assay, D4; conditions: receptor binding; average of at least two experiments; read-out: Ki D4
# Sequence of dopamine D4 receptor (P21917 whole entry, species assumed): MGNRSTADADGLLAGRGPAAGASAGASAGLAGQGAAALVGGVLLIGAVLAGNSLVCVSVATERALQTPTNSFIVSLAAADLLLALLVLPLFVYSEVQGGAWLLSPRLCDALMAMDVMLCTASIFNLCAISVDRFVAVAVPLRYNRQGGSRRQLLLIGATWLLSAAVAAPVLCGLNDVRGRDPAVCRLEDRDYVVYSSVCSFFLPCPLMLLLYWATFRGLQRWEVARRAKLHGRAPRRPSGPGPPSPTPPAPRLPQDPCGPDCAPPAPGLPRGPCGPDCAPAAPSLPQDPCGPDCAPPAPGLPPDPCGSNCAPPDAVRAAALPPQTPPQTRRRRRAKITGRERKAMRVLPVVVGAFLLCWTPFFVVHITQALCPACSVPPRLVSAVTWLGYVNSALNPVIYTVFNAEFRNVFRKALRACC
# Procedure: 1. Secondary Radioligand Binding Assays
# The detailed experimental protocols for the radioligand and functional receptor assays are available on the NIMH PDSP website at http://pdsp.med.unc.edu/UNC-CH %20Protocol %20Book.pdf.
# Radioligand is diluted to five times the assay concentration (see Table 18) in Standard Binding Buffer. Typically, the assay concentration of radioligand is a value between one half the KD and the KD of a particular radioligand at its target. 50 μl aliquots of radioligand are dispensed into the wells of a 96-well plate containing 100 μl of Standard Binding Buffer. Then, duplicate 50 μl aliquots of the test and reference compound dilutions are added.
# The 250 μl reactions are incubated at room temperature and shielded from light (to prevent photolysis of light-sensitive ligands) for 1.5 hours, then harvested by rapid filtration onto Whatman GF/B glass fiber filters pre-soaked with 0.3% polyethyleneimine using a 96-well Brandel harverster. Four rapid 500 μl washes are performed with chilled Standard Binding Buffer to reduce non-specific binding. Filters are placed in 6 ml scintillation tubes and allowed to dry overnight. The next day, 4 ml of EcoScint scintillation cocktail (National Diagnostics) are added to each tube. The tubes are capped, labeled, and counted by liquid scintillation counting. […] The filter mats are dried, then scintillant is melted onto the filters and the radioactivity retained on the filters is counted in a Microbeta scintillation counter.
# Raw data (dpm) representing total radioligand binding (i.e. specific+non-specific binding) are plotted as a function of the logarithm of the molar concentration of the competitor (i.e. test or reference compound).
# B. Dopamine Receptors: D1, D2, D3, D4, D5 Assay Buffers: Dopamine Binding Buffer (50 mM NaCl, 50 mM HEPES-HCl, 5 mM MgCl2, 0.5 mM EDTA, pH 7.4) Membrane Fraction Source: Transiently or stably transfected cell lines (e.g. HEK293, COS, CHO, NIH3T3)
# The method is carried out in the manner described for the serotonin receptor assay above. Eleven dilutions (5× assay concentration) of the test and reference (see Table 19) compounds are prepared in Dopamine Binding Buffer by serial dilution, as previously described. Radioligand is diluted to five times the assay concentration (see Table 20) in Dopamine Binding Buffer.
# [4] = molecular target: 5HT1a receptor (Homo sapiens (Human), UniProt P08908); experiment: Secondary radioligand binding assay, 5HT1a; conditions: average of at least two experiments
# Sequence of 5HT1a receptor (P08908 whole entry): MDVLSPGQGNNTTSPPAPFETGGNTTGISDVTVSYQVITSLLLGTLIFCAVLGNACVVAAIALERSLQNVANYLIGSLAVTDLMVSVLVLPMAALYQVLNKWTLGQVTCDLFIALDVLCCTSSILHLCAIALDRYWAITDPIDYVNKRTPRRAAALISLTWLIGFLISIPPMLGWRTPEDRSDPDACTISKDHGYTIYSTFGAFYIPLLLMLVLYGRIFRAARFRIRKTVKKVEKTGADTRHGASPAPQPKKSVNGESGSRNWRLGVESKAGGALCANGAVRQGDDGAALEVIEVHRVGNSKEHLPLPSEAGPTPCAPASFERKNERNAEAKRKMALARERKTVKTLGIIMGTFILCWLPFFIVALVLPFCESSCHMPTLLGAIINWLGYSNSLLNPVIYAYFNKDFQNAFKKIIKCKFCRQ
# Procedure: as §1, §2
# Sequence of 5HT2c receptor (P28335 33-458): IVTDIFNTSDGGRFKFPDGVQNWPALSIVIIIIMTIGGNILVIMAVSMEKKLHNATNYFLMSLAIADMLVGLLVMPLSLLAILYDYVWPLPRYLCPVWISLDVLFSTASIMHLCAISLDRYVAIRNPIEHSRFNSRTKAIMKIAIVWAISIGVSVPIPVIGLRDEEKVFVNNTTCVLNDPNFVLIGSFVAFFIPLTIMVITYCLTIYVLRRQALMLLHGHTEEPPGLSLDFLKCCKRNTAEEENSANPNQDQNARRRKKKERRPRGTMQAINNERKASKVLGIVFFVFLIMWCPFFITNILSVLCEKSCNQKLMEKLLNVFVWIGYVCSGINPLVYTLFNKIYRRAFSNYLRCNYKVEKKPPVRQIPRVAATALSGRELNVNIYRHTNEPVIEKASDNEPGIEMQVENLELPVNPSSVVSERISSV
SMILES,Ki [1] [µM],Ki [2] [µM],Ki [3] [µM],Ki [4] [µM]
"Fc1ccc(OC[C@@H]2CN(CCN3CCc4ccccc43)CCO2)cc1 [Compound 32s, (S)-2-((4-fluorophenoxy)methyl)-4-(2-(indolin-1-yl)ethyl)morpholine hydrochloride]",1.11,0.374,3.93,
"COc1cccc(OC[C@H]2CN(CCN3CCc4ccccc43)CCO2)c1 [Compound 25r, (R)-4-(2-(Indolin-1-yl)ethyl)-2-((3-methoxyphenoxy)methyl)morpholine]",,3.78,,1.47
